Several values for one entry are separate records, joined by “and”; a condition that tells them apart may be missing. Equal values may be shown once.
Test system: K98450-129-R-PDC complex spheroid growth, percent test/control
Test: Anticancer human tumor K98450-129-R-PDC patient-derived colon adenocarcinoma cell line growth inhibition [RAS]
Conditions: for viability, T/C: stronger effect = lower value
Excerpt: RAS pathway inhibitors in Combinations in Complex Spheroids
A high-throughput screen of multi-cell type tumor spheroids was designed to identify active combinations of RAS pathway inhibitors and targeted small molecules. Complex spheroids include a stromal component modeled by human endothelial cells (HUVEC) and fibroblasts modeled by human mesenchymal stem cells (MSCs). The concentration ranges selected for each drug and investigational agent were based upon clinically achievable concentrations if the clinical Cmax of the agent was known.
Compounds. The drugs and investigational agents: abemaciclib (NSC768073), cobimetinib (NSC768068), divarasib (GDC6063, NSC841802), docetaxel (NSC628503), GDC-1971 (RLY-1971, NSC841576), gemcitabine (NSC613327), inavolisib (NSC800729), ipatasertib (NSC767898), KB-0742 (NSC834161), MRTX-1133 (NSC836407), osimertinib (NSC779217), RMC-4630 (NSC839698), RMC-6236 (NSC851965), RMC-6291 (NSC852671), Ro-3306 (NSC812927), sapanisertib (NSC764658), SN-38 (NSC673596), staurosporine (NSC755774), SY5609 (NSC837396), and tovorafenib (DAY101, NSC766906), were obtained from the National Cancer Institute (NCI) Developmental Therapeutics Program Chemical Repository. The FDA-approved anticancer drug set is available from the NCI Developmental Therapeutics Program. […] The stock solutions were prepared in dimethyl sulfoxide (DMSO, Sigma-Aldrich, St. Louis, MO, cat. D2650) at 800-fold the tested concentration and stored at -70 degrees C prior to their use. All drugs and investigational agents were tested over a range starting from a high concentration at or near the clinical Cmax and decreasing in half-log increments. If the clinical Cmax for an agent had not been determined, the highest concentration tested was 10 microM.
Cell Culture. All cells were maintained in an incubator at 37 degrees C and 5% CO2 with 95% humidity. The PDC lines were cultured according to standard operating procedures established by the NCI PDMR. All PDCs were thawed and cultured in Matrigel-coated flasks prepared with a working solution of 1X Ham's F-12 nutrient mix, without supplementation (Invitrogen, Waltham, MA, cat. 11765054), 100 U/mL penicillin-streptomycin (Invitrogen, cat. 15140122), and 2.5% Matrigel (Corning Inc., Corning, NY, cat. 354248) for the first three passages. The 362531-283-R-J2-PDC and 782815-120-R-J1-PDC lines were cultured in 6C/Colon 1B media, which includes advanced DMEM/F-12 (Thermo Fisher Scientific, cat. 12634028), 10 mM HEPES (Thermo Fisher Scientific, cat. 15630080), 1X GlutaMAX supplement (Thermo Fisher Scientific, cat. 35050061), 0.1 mg/mL primocin (InvivoGen, San Diego, CA, cat. ant-pm-2), 10% defined fetal bovine serum, heat inactivated (HyClone Laboratories Inc., Logan, UT, cat. SH30070.03HI), 50% L-WRN conditioned media (ATCC, cat. CRL-3276), 1.25 mM N-Acetyl-L-cysteine (Sigma-Aldrich, cat. A9165), 10 mM nicotinamide (Sigma-Aldrich, cat. N0636), 1X B-27 supplement (Thermo Fisher Scientific, cat. 17504044), 1X N-2 supplement (Thermo Fisher Scientific, cat. 17502048), 50 ng/mL human EGF (Thermo Fisher Scientific, cat. PHG0311), and 10 microM Y-27632 dihydrochloride (Tocris Bioscience, cat. 1254). The K12877-001-R-J1-PDC line was cultured in 6I media, which includes all 6C/Colon 1B media plus 10 ng/mL human FGF-10 (PeproTech, cat. 100-26), 1 ng/mL human FGF-2 (PeproTech, cat. 100-18B), 1 µM prostaglandin E2 (Tocris Bioscience, cat. 2296), […] hydrocortisone (Sigma-Aldrich, cat. H4001), and […] bovine insulin (Sigma-Aldrich, cat. I6634). The K86415-001-R-J1-PDC line was cultured in 6D media, which includes all 6C/Colon 1B media components minus the L-WRN conditioned media. The 485176-168-R4-J1-PDC was cultured in PANC media, which includes all 6C/Colon 1B media plus 100 ng/mL human FGF-10 (PeproTech, cat. 100-26), 500 nM SB-431542 (Selleckchem, cat. S1067), and 10 nM gastrin (Tocris Bioscience, cat. 3006). […]
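Also: spheroids exposed to agents for seven days before the viability readout.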
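For viability, T/C in this document: luminescence used as a proxy for viable cell amount.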

| IC50 (curve of compound) | IC50 (compound alone, run of 05/20/2024) | Structure (SMILES) | viability, T/C (compound 0.000316 µM) | viability, T/C (compound 0.001 µM) | viability, T/C (compound 0.00316 µM) | viability, T/C (compound 0.01 µM) | viability, T/C (compound 0.0316 µM) | viability, T/C (compound 0.1 µM) | viability, T/C (compound 0.000949 µM) | viability, T/C (compound 0.003 µM) | viability, T/C (compound 0.00949 µM) | viability, T/C (compound 0.03 µM) | viability, T/C (compound 0.0949 µM) | viability, T/C (compound 0.3 µM) |
| --- | --- | --- | --- | --- | --- | --- | --- | --- | --- | --- | --- | --- | --- | --- |
| > 100 nM | – | CC(C)n1nc(-c2ccc3oc(N)nc3c2)c2c(N)ncnc21 | 106% [middle of 4 runs] | 90.9% [middle of 4 runs] | 93.6% [middle of 4 runs] | 96.8% [middle of 4 runs] | 79.8% [middle of 4 runs] | 78.4% (2×) and 86.4% and 72.6% | – | – | – | – | – | – |
| > 300 nM | – | CC1(C)CCC(Nc2ncc(C(F)(F)F)c(-c3c[nH]c4c(P(C)(C)=O)c(C#N)ccc34)n2)CN1 (configuration not stated) | – | – | – | – | – | – | 105% [middle of 4 runs] | 105% (2×) and 98.6% and 96.4% | 106% [middle of 4 runs] | 107% (2×) and 109% and 99.9% | 94.4% [middle of 4 runs] | 86.1% [middle of 4 runs] |
| 48.9 nM and > 300 nM and 43.1 nM | – | CCc1c2c(nc3ccc(O)cc13)-c1cc3c(c(=O)n1C2)COC(=O)[C@]3(O)CC | – | – | – | – | – | – | 104% [middle of 4 runs] | 97.8% [middle of 4 runs] | 92.5% [middle of 4 runs] | 69% [middle of 4 runs] | – | 49.5% [middle of 4 runs] |
| – | 35 nM [middle of 8 runs] | CCn1c(-c2cc(N3CCN(C)CC3)cnc2C(C)OC)c2c3cc(ccc31)-c1csc(n1)CC(NC(=O)C1CC1C)C(=O)N1CCCC(N1)C(=O)OCC(C)(C)C2 (configuration not stated) | – | – | – | – | – | – | 93.1% [middle of 8 runs] | 86.4% [middle of 8 runs] | – | 56.8% [middle of 8 runs] | 23.6% [middle of 8 runs] | 14.1% [middle of 8 runs] |
| – | – | CCn1c(-c2cccnc2C(C)OC)c2c3cc(ccc31)N1CCOC(CC(NC(=O)C(C(C)C)N(C)C(=O)C3(F)CCN(C(=O)C#CC(C)(C)N(C)C)CC3)C(=O)N3CCCC(N3)C(=O)OCC(C)(C)C2)C1 (configuration not stated) | – | – | – | – | – | – | 78.5% [middle of 8 runs] | 63.4% [middle of 8 runs] | 47.8% [middle of 8 runs] | 43.1% [middle of 8 runs] | 41.6% [middle of 8 runs] | 35.3% [middle of 8 runs] |
